36 compounds from ChEMBL document CHEMBL4765482, “Novel Sigma 1 Receptor Antagonists as Potential Therapeutics for Pain Management” (J Med Chem, 2021) can be followed below.

Series [1] in a line: Displacement of [3H]-DTG from sigma-2 receptor in guinea pig brain membrane incubated for 1 hr by liquid scintillation counting method. It counts as cell membranes, Cavia porcellus.
In series [2] the target is T1, Sigma intracellular receptor 2 (Homo sapiens, UniProt Q5BJF2). As to the kind of experiment: Displacement of [3H]-DTG from sigma-2 receptor in human Jurkat cell membrane at 1000 nM incubated for 1 hr by liquid scintillation counting method relative to control. It counts as cell membranes. The settings on record: filed as antagonist.
T1 sequence (Q5BJF2 whole entry): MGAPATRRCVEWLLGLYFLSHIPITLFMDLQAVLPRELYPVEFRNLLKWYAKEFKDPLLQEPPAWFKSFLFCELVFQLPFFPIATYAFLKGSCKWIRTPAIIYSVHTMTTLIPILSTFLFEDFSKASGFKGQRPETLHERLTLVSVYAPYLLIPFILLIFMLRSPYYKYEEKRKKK
The target of series [3] is T2, Sigma non-opioid intracellular receptor 1 (Homo sapiens, UniProt Q99720). Description: Displacement of [3H]-pentazocine from sigma-1 receptor in human Jurkat cell membrane incubated for 2 hr by liquid scintillation counting method. Type of series: cell membranes. On the technique in general: Loss of bound radioactivity is the signal in a displacement assay; it reports binding, not function.
T2 sequence (Q99720 whole entry): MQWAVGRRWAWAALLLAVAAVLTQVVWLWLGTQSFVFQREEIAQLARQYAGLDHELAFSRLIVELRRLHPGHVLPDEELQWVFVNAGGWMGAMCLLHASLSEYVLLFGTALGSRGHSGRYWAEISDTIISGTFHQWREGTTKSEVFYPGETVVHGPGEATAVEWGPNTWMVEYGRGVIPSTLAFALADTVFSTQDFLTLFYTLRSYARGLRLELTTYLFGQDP

Series [4] in a line: Intrinsic clearance in human liver microsomes at 10 uM incubated for 1 hr in presence of NADPH by LC-MS/MS analysis. It counts as ADME, Microsome. The following applies: read-out: CLH. On the technique in general: Microsomes from liver hold many membrane-bound enzymes, among them those of drug oxidation.
The nature of series [5]: Intrinsic clearance in rat liver microsomes at 10 uM incubated for 1 hr in presence of NADPH by LC-MS/MS analysis. The following applies: read-out: CLH. Type of series: ADME, Microsome.
Series [6] can be described thus: Metabolic stability in rat liver microsomes assessed as half-life at 10 uM incubated for 1 hr in presence of NADPH by LC-MS/MS analysis. Type of series: ADME, Microsome.
Series [7] in a line: Metabolic stability in human liver microsomes assessed as half-life at 10 uM incubated for 1 hr in presence of NADPH by LC-MS/MS analysis. It counts as ADME, Microsome.
Series [8] has as its target T2, Sigma non-opioid intracellular receptor 1. Description: Displacement of [3H]-pentazocine from sigma-1 receptor in human Jurkat cell membrane at 100 nM incubated for 2 hr by liquid scintillation counting method relative to control. It counts as cell membranes.
The target of series [9] is T1, Sigma intracellular receptor 2. Description: Displacement of [3H]-DTG from sigma-2 receptor in human Jurkat cell membrane incubated for 1 hr by liquid scintillation counting method. Type of series: cell membranes.
Series [10] concerns Rattus norvegicus. Description: Antinociceptive activity in formalin-induced Sprague-Dawley rat model of nociceptive pain assessed as decrease in time spent on licking during late phase at 100 mg/kg, ip administered 30 mins before formalin stimulation and measured at 5 mins interval for 10 to 35 mins. It counts as functional, organism-based.
For series [11], the system named is Rattus norvegicus. Description: Analgesic activity in Sprague-Dawley rat model of paclitaxel-induced neuropathic pain assessed as reduction in cold hyperalgesia by measuring increase in paw withdrawal latency at 100 mg/kg, ip measured at 1 to 2 hrs post dosing by Von Frey assay relative to control. The following applies: time 1-2 hrs. It counts as functional, organism-based.

The subject of series [12] is Rattus norvegicus. Description: Analgesic activity in Sprague-Dawley rat model of paclitaxel-induced neuropathic pain assessed as decrease in mechanical allodynia by measuring reduction in pain threshold at 100 mg/kg, ip measured at 0.5 to 1.5 hrs by Von Frey assay relative to control. Type of series: functional, organism-based. The following applies: time 0.5-1.5 hrs.

The nature of series [13]: Toxicity in Sprague-Dawley rat assessed as effect on motor coordination at 100 mg/kg, ip measured at 60 to 120 mins post treatment by rotarod test. It counts as organism-based. The settings on record: in vivo, time 60-120 min. For orientation: In the rotarod test animals must keep their balance on a rotating rod.
The target in series [14] is T3, Sigma non-opioid intracellular receptor 1 (Cavia porcellus, UniProt Q60492). As to the kind of experiment: Displacement of [3H]-(+)-pentazocine from sigma-1 receptor in guinea pig brain membranes incubated for 1 hr by liquid scintillation counting method. It counts as cell membranes, Membrane.
T3 sequence (Q60492 whole entry): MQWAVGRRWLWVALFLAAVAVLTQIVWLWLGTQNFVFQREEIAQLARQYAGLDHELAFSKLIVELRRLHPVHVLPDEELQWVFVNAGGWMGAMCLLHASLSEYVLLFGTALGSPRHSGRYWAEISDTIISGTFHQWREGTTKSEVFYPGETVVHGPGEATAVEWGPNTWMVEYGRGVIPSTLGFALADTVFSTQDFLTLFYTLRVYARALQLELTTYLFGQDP
Series [15] addresses T3, Sigma non-opioid intracellular receptor 1.
Series [16] deals with Sigma non-opioid intracellular receptor 1 (Cavia porcellus) (UniProt Q60492). Description: Ratio of Ki for displacement of [3H]-(+)-pentazocine from sigma-1 receptor to Ki for displacement of [3H]-(+)-pentazocine from sigma-1 receptor in guinea pig brain membranes in presence of phenytoin. It counts as cell membranes. The following applies: Membrane.
Sequence of Sigma non-opioid intracellular receptor 1 (Cavia porcellus) (Q60492 whole entry): as above

pKi: −log10 of the molar value. Calls of active or inactive are those of the source.

By pKi is commonly meant −log10 of the Ki, conventionally taken in molar units. Higher therefore signals a small Ki. `Cn1nc(CN2CCOCC2)nc1-c1ccc(C(C)(C)C)cc1` had a pKi in series [1] below 6.00.
On the same count and under the same terms, the result for `Cn1nc(CN2CCN(Cc3ccccc3)CC2)nc1-c1ccc(C(C)(C)C)cc1` reads 7.41.
Take `Cn1nc(CN2CCCC2)nc1-c1ccc(-c2ccccc2)cc1`: in series [2], the Activity was 60%. In [3], this compound showed a negative logarithm of the Ki (pKi) of 7.05.
By half-life is commonly meant how long it takes for the measured level to halve. On to `Cc1ncc2n1-c1ccc(Cl)cc1C(c1ccccc1F)=NC2` [MIDAZOLAM], for which the microsomal CLint at 10 µM in series [4] was 263 µL/min/mg; in [5], 293 µL/min/mg. The half-life at 10 µM in [6] was 2.4 min; in series [7] it was 2.6 min.
For the compound `CC(C)n1nc(CN2CCCC2)nc1-c1ccc(C(C)(C)C)cc1`, in series [3], the pKi was 8.66.
For `Cn1nc(CN2CCCC2)nc1-c1ccc(Cl)cc1`, the Activity in series [8] was 31%. In addition, the pKi in series [9] is below 6.00.
As to `O=C(CCCN1CCC(O)(c2ccc(Cl)cc2)CC1)c1ccc(F)cc1` [HALOPERIDOL], in series [1], the pKi was 8.33.
`Cn1nc(CN2CCCC2)nc1-c1ccc2c(c1)CCCC2` gave a negative-log Ki (pKi) in series [3] of 7.59.
Take `Cn1nc(CN2CCCC2)nc1-c1ccc(C(F)(F)F)cc1`: the pKi in series [3] was 7.09; in [9], below 6.00.
As to `NCC1(CC(=O)O)CCCCC1` [GABAPENTIN], the outcome in series [10] and in series [12] was Active. Further, the result in series [11] was inactive. Further, in [13], the Activity entry is given as “Toxic”.
Turning to `Cn1nc(CN2CCCC2)nc1-c1ccc(Cl)c(Cl)c1`, the microsomal CLint at 10 µM in [4] is 8.2 µL/min/mg; in series [5], 135 µL/min/mg. Further, the values for the half-life at 10 µM in series [6] and in series [7] were 5.1 min and 84.7 min, respectively.
Regarding `Cn1nc(CN2CCCC2)nc1-c1ccc2cc(Cl)sc2c1`, in [9], the pKi was 6.00.
As for `Cn1nc(CN2CCCC2)nc1-c1cccc(C2(C(F)(F)F)CC2)c1`, the microsomal CLint at 10 µM in series [4] was determined as 7.9 µL/min/mg; in [5] it was 144 µL/min/mg. Moreover, the half-life at 10 µM in [6] worked out at 4.8 min; in series [7] it was 87.6 min.
Turning to `CC(C)c1ccc(-c2nc(CN3CCCC3)nn2C)cc1`, the pKi in [3] was 7.02; in [9], 6.00.
As to `Cc1cc(-c2nc(CN3CCCC3)nn2C)ccc1C(F)(F)F`, the microsomal CLint at 10 µM in [4] was determined as 9.3 µL/min/mg; in series [5], 263 µL/min/mg. Moreover, the values for the half-life at 10 µM in series [6] and in series [7] were 2.6 min and 74.9 min, respectively.
For the compound `Cn1nc(CN2CCCC2)nc1-c1ccc(-c2ccc(Cl)c(Cl)c2)c(Cl)c1`, the Activity in series [8] (filed as antagonist) was determined as 43%; in series [2], 79%.
Regarding `COc1ccc2c(c1)[C@]13CCCC[C@@H]1[C@H](C2)N(C)CC3` [DEXTROMETHORPHAN], the figures for the negative-log Ki (pKi) in [14] and in [15] were 7.20 and 8.00, respectively. Also, the Ratio Ki in series [16] stood at 6.3.
In turn, `Cc1ccc(-c2nc(CN3CCCC3)nn2C)cc1` yielded an Activity in series [8] of 3%. This compound also showed a pKi in series [9] below 6.00.
`Cc1cc(OCCN2CCOCC2)nn1-c1ccc2ccccc2c1`: the values for the pKi in series [14] and in [1] were 8.52 and below 6.00, respectively. Also, the microsomal CLint at 10 µM came to 10.7 µL/min/mg in series [4] and 190 µL/min/mg in series [5]. The half-life at 10 µM in series [6] came out at 3.6 min; in series [7], 64.6 min.
In the case of `O=C(O)Cc1ccccc1Nc1c(Cl)cccc1Cl` [DICLOFENAC], the results for the microsomal CLint at 10 µM in series [4] and in series [5] were 189 µL/min/mg and 196 µL/min/mg, respectively.
In the case of `Cn1nc(CN2CCC(Cc3ccccc3)CC2)nc1-c1ccc(C(C)(C)C)cc1`, in series [1], the pKi is 7.24.
`CN(Cc1nc(-c2ccc(C(C)(C)C)cc2)n(C)n1)CC1CC1`: the microsomal CLint at 10 µM in series [4] turned out to be 11.3 µL/min/mg; in series [5], 196 µL/min/mg. This compound also showed a pKi in series [1] of 6.49. Moreover, the half-life at 10 µM was found to be 3.5 min in series [6] and 61.3 min in series [7].
`Cn1nc(CN2CCCC2)nc1-c1ccc2c(c1)CCC2`: the Activity in series [8] worked out at 37%. Also, the pKi in series [9] is 6.00.
Take `Cn1nc(CN2CCCC2)nc1-c1ccc(Oc2ccccc2)cc1`: the Activity in series [8] stood at 39%; in series [2], 65%.
Turning to `Cn1nc(CN2CCCC2)nc1-c1ccc(C2CC2)cc1`, the Activity in series [8] was 30%. Moreover, the pKi in series [9] was 6.00.
Consider `Cn1nc(CN2CCCC2)nc1-c1ccc(C2(C(F)(F)F)CC2)cc1`, for which the microsomal CLint at 10 µM in [4] came to 4 µL/min/mg; in [5], 207 µL/min/mg. Besides, the half-life at 10 µM was 3.3 min in series [6] and 172 min in series [7].
`Cn1nc(CN2CCCC2)nc1-c1cccc(-c2ccccc2)c1` registered an Activity in series [8] (filed as antagonist) of 40%. The pKi in [9] is 6.00.
For `Cn1nc(CN2CCCC2)nc1-c1ccc2ccsc2c1`, the pKi in series [3] was 7.19; in series [9] it was below 6.00.
For `Cn1nc(CN2CCN(c3ccccc3)CC2)nc1-c1ccc(C(C)(C)C)cc1`, the pKi was 7.85 in series [14] and below 6.00 in [1]. For the same compound, the microsomal CLint at 10 µM in series [4] turned out to be 18.6 µL/min/mg; in [5], 29.8 µL/min/mg. The half-life at 10 µM in series [6] was 23.3 min; in series [7], 37.3 min.
Take `Cn1nc(CN2CCN(CCc3ccccc3)CC2)nc1-c1ccc(C(C)(C)C)cc1`: the pKi in [14] is 8.00; in series [3], 7.31; in [9], 7.77; in series [1], 7.85.
Consider `Cn1nc(CN2CCCC2)nc1-c1cccc(C(C)(C)C)c1`, for which the results for the negative logarithm of the Ki (pKi) in series [3] and in series [9] were 7.54 and 6.00, respectively.
For `CN1CCN(Cc2nc(-c3ccc(C(C)(C)C)cc3)n(C)n2)CC1`, in series [1], the pKi was below 6.00.
Regarding `Cn1nc(CN2CCCC2)nc1-c1ccc(C2CCCCC2)cc1`, the Activity in series [2] was 89%. The same compound showed a pKi in series [3] of 7.70.
As to `Cn1nc(CN2CCCC2)nc1-c1cccc(Oc2ccccc2)c1`, the Activity in series [8] stood at 21%. In addition, the pKi in [9] is below 6.00.
In series [1], `Cn1nc(CN2CCCCC2)nc1-c1ccc(C(C)(C)C)cc1` showed a pKi of 6.36.
In series [8], `Cc1ccc(-c2nc(CN3CCCC3)nn2C)cc1C` had an Activity of 28%. In [9], this compound gave a pKi below 6.00.
